Where no end group is shown, it is not given here.
Legend:
Test in all cases: MIC by broth dilution method
Format in all cases: cell-based
[1] = tested on: Staphylococcus aureus FDA 209P; settings: S. aure 209-P
Experimental: (§1) Using the substances finally obtained in the above-described Experiments 35 to 42 and having no blocking group, MIC (minimum growth inhibitory concentration) against various bacteria was examined according to the broth dilution method, and the antibacterial activities were evaluated.
(§2) H--(1-23)--NH(CH2)7 CH3 was synthesized according to the same procedures as described in Experiments 1 to 35, and the antibacterial activities thereof against various bacteria were examined in the same manner as in Example 1.

[2] = tested on: Salmonella enteritidis IFO 3313; settings: S. ent 3313
Experimental: as §1, §2

[3] = tested on: Proteus mirabilis 1287; settings: P. mira 1287
Experimental: as §1, §2

[4] = tested on: E. coli JC-2
Experimental: as §1, §2

[5] = tested on: Proteus mirabilis 129; settings: P. mira 129
Experimental: as §1, §2

[6] = tested on: Streptococcus hemolyticus; settings: S. hemo
Experimental: as §1, §2

[7] = tested on: Bacillus subtilis PCI 219; settings: B. sub 219
Experimental: as §1, §2

[8] = tested on: Escherichia coli NIHJ; settings: E. coli NIHJ
Experimental: as §1, §2

[9] = tested on: Pseudomonas aeruginosa 99; settings: P. aeru 99
Experimental: as §1, §2

[10] = tested on: Escherichia coli D 21
Experimental: as §1, §2

[11] = tested on: Enterobacter aerogenes IFO 13545; settings: E. aero 13534
Experimental: as §1, §2

[12] = tested on: Pseudomonas aeruginosa; settings: P. aeru
Experimental: as §1, §2

[13] = tested on: Micrococcus luteus ML II; settings: M. lute ML II
Experimental: as §1, §2

[14] = tested on: Pseudomonas aeruguinosa OT 97; settings: P. aeru OT 97
Experimental: as §1, §2

In the case of “RWKIFKKIEKMGRNIRDGIVKAGPAIEVLGSAKAI-NH2 [Synthetic lepidopteran A, lepidopteran A, reference compound]”, the MIC ([1]; Table 1) was 8 µg/mL, the MIC ([1]; Table 2) was 125 µg/mL and the MIC ([2]; Table 1) was 4 µg/mL. It also gave an MIC ([2]; Table 2) of 4 µg/mL, an MIC ([3]; Table 1) of 32 µg/mL and an MIC ([3]; Table 2) of 32 µg/mL. For the same substance, the MIC ([4]; Table 1) was 4 µg/mL, the MIC ([4]; Table 2) was 4 µg/mL and the MIC ([5]; Table 1) was 32 µg/mL. For the same substance, the MIC ([5]; Table 2) was 32 µg/mL, the MIC ([6]; Table 1) was “-- (Symbol "--" is meant to be MIC > 250 mcg/ml)” and the MIC ([6]; Table 2) was “-- (Symbol "--" is meant to be MIC > 250 mcg/ml)”. For the same substance, the MIC ([7]; Table 1) was 32 µg/mL, the MIC ([7]; Table 2) was 32 µg/mL and the MIC ([8]; Table 1) was 4 µg/mL. It also gave an MIC ([8]; Table 2) of 4 µg/mL, an MIC ([9]; Table 1) of 8 µg/mL and an MIC ([9]; Table 2) of 8 µg/mL. It also gave an MIC ([10]; E. coli D 21, Table 1) of 2 µg/mL, an MIC ([10]; E. coli D, Table 2) of 2 µg/mL and an MIC ([11]; Table 1) of 8 µg/mL. It also gave an MIC ([11]; Table 2) of 8 µg/mL, an MIC ([12]; Table 1) of 8 µg/mL and an MIC ([12]; Table 2) of 8 µg/mL. For the same substance, the MIC ([13]; Table 1) was 2 µg/mL, the MIC ([13]; Table 2) was 2 µg/mL and the MIC ([14]; Table 1) was 8 µg/mL. It also gave an MIC ([14]; Table 2) of 8 µg/mL.

Reference: patent publication US5034510A, “Antibacterial substance” (Shin-Etsu Chemical Co., Ltd., priority 1986, dated 1991)
